According to ChEMBL document CHEMBL4602687, “Dual Binding to Orthosteric and Allosteric Sites Enhances the Anticancer Activity of a TRAP1-Targeting Drug” (J Med Chem, 2020):
Where a chain is given by its changes, count along the chain named. Activity calls are given as the source filed them. The rule behind the calls is not given here.

Columns and labels:
[1] = test system: T1, Heat shock protein 75 kDa, mitochondrial (Homo sapiens), Q12931 [E115Q]; assay: Inhibition of recombinant […] human TRAP1 E115Q mutant ATPase activity expressed in Escherichia coli BL21 (DE3) up to 20 uM preincubated for 0.5 hrs followed by ATP addition and measured after 3 hrs by PiColorLock Gold reagent based colorimetric assay
T1 sequence (whole entry): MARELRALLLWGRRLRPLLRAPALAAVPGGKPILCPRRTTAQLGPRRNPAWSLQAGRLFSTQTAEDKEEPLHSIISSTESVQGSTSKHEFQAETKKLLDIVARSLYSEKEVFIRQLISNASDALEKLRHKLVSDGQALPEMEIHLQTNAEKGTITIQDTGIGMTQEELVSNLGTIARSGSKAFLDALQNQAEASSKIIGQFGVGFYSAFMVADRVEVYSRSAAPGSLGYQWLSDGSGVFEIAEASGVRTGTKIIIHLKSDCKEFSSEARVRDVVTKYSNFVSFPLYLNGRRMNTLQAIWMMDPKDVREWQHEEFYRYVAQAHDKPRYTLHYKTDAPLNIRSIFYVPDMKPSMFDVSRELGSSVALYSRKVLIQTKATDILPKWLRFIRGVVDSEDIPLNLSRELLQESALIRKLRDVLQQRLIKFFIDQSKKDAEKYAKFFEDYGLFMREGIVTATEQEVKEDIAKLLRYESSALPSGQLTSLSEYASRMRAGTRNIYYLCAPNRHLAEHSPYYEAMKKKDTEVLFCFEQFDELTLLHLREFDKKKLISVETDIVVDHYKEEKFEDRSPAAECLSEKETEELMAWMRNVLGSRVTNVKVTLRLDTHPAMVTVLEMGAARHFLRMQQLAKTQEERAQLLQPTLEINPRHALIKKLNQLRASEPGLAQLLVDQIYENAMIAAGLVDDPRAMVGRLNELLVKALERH

[2] = target: T2, Heat shock protein 75 kDa, mitochondrial (Homo sapiens) (UniProt Q12931); assay: Stimulation of recombinant wild-type human TRAP1 ATPase activity expressed in Escherichia coli BL21 (DE3) at 2 to 5 uM preincubated for 0.5 hrs followed by 2 mM ATP addition and measured after 3 hrs by PiColorLock Gold reagent based colorimetric assay relative to control
T2 sequence (whole entry): T1 sequence (whole entry) with Q115E

Mus musculus [3] = assay: In vivo inhibition of TRAP1 in nude mouse xenografted with human NCI-H460 cells assessed as increase in AMPK phosphorylation at 5 mg/kg, ip administered daily by Western blot analysis; type: functional, organism-based
[4] = target: T2, Heat shock protein 75 kDa, mitochondrial (Homo sapiens); assay: Inhibition of TRAP1 in human PC3 cells assessed as reduction in ATP concentration at 10 uM measured after 2 hrs; type: cell-based; conditions: PC-3
[5] = test system: T3, Heat shock protein 75 kDa, mitochondrial (Homo sapiens), Q12931 [R114E,R402Q]; assay: Stimulation of recombinant […] human TRAP1 R114E/R402Q mutant ATPase activity expressed in Escherichia coli BL21 (DE3) up to 20 uM preincubated for 0.5 hrs followed by ATP addition and measured after 3 hrs by PiColorLock Gold reagent based colorimetric assay
T3 sequence (whole entry): T1 sequence (whole entry) with R114E, Q115E, R402Q

NCI-H460 = assay: Antitumor activity against human NCI-H460 cells xenografted in nude mouse assessed as induction of tumor cell death by measuring increase in cleaved caspase-3 expression at 5 mg/kg, ip administered daily by Western blot analysis; type: functional, organism-based
Mus musculus [6] = assay: In vivo inhibition of TRAP1 in nude mouse xenografted with human NCI-H460 cells assessed as increase in SIRT3 degradation at 5 mg/kg, ip administered daily by Western blot analysis; type: functional, organism-based
[7] = target: T2, Heat shock protein 75 kDa, mitochondrial (Homo sapiens); assay: Inhibition of recombinant wild-type human TRAP1 chaperone activity expressed in Escherichia coli BL21 (DE3) at 5 uM preincubated for 30 mins followed by denatured luciferase and ATP addition by luciferase refolding assay
[8] = target: T2, Heat shock protein 75 kDa, mitochondrial (Homo sapiens); assay: Inhibition of TRAP1 in human PC3 cells assessed as increase in AMPK phosphorylation at 5 uM measured after 2 to 12 hrs by Western blot analysis; type: cell-based; conditions: PC-3
[9] = target: T2, Heat shock protein 75 kDa, mitochondrial (Homo sapiens); assay: Stimulation of recombinant wild-type human TRAP1 ATPase activity expressed in Escherichia coli BL21 (DE3) at 2 to 5 uM preincubated for 0.5 hrs followed by 0.2 mM ATP addition and measured after 3 hrs by PiColorLock Gold reagent based colorimetric assay relative to control

For `Nc1ncnc2c1nc(Sc1cc3c(cc1I)OCO3)n2CCCCCCCCCC[P+](c1ccccc1)(c1ccccc1)c1ccccc1`, the inhibition [1] was “Active”, the fold change (FC) [2] was 2 and the inhibition (Mus musculus [3]) was “Active”. For the same molecule, the inhibition [4] was “Active”, the Activity [5] was “inactive” and the Activity (NCI-H460) was “Active”. For the same molecule, the inhibition (Mus musculus [6]) was “Active”, the inhibition [7] was “Active” and the inhibition [8] was “Active”. For the same molecule, the fold change (FC) [9] was 1.2.
